Laboratory results from US20120252741A1, “NOVEL SEMI-SYNTHETIC GLYCOPEPTIDES AS ANTIBACTERIAL AGENTS” (priority 2008, published 2012).
≈ marks a conversion by molar mass, not a printed value. Where two headings read alike, the source gives them in different places.

Experiments:
Type in all cases: cell-based
[1] = test system: Staphylococcus epidermidis 835; experiment: MIC, broth microdilution, SE 835; settings: Staphylococcus epidermidis, 835, class symbols, read-out: MIC SE 835
Description: (§1) Antibacterial activity in vitro is investigated by broth microdilution method in Meuller-Hinton broth as recommended by NCCLS. All strains tested are clinical isolates either sensitive or resistant to natural glycopeptides. MIC values were determined using the CLSI-recommended broth microdilution procedure (Clinical and Laboratory Standards Institute, Methods for Dilution Antimicrobial Susceptibility Tests for Bacteria That Grow Aerobically; Approved Standard-Seventh Edition.). Automated liquid handlers (Multidrop 384, Labsystems, Helsinki, Finland; Biomek 2000 and Multimek 96, Beckman Coulter, Fullerton Calif.) were used to conduct serial dilutions and liquid transfers. The MIC value for vancomycin is given for comparison. The abbreviations for organisms tested are as follow: SA 100—Staphylococcus aureus 100 (ATCC 29213); SA 757—Staphylococcus aureus 757 (MRSA); SA 2012—Staphylococcus aureus 2012 (VISA); SE 835—Staphylococcus epidermidis 835; SE 831—Staphylococcus epidermidis 831 (MRSE); EFc 101—Enterococcus faecalis 101 (ATCC 29212); EFc 848—Enterococcus faecalis 848 (VRE, Van A); EFcm 800—Enterococcus faecium 800; EFcm 752—Enterococcus faecium 752 (VRE, Van A); SPNE 1195—Streptococcus pneumoniae 1195 (ATCC 49619); SPY 712—Streptococcus pyogenes 712.

[2] = test system: Enterococcus faecalis 848 (VRE, Van A); experiment: MIC, broth microdilution, EFc 848; settings: VRE, Van A, class symbols, read-out: MIC E FC 848
Description: as §1

[3] = test system: Staphylococcus aureus 100 (ATCC 29213); experiment: MIC, broth microdilution, SA 100; settings: Staphylococcus aureus, ATCC29213, class symbols, read-out: MIC SA 100
Description: as §1

[4] = test system: Enterococcus faecalis 101 (ATCC 29212); experiment: MIC, broth microdilution, EFc 101; settings: Enterococcus faecalis, ATCC29212, class symbols, read-out: MIC E FC 101
Description: as §1

[5] = test system: Staphylococcus epidermidis 831 (MRSE); experiment: MIC, broth microdilution, SE 831; settings: Staphylococcus epidermidis, read-out: MIC SE 831
Description: as §1

Enterococcus faecium 800 = experiment: MIC, broth microdilution, EFcm 800; settings: Enterococcus faecium, 800, class symbols, read-out: MIC E FCM 800
Description: as §1

[6] = test system: Streptococcus pyogenes 712; experiment: MIC, broth microdilution, SPY 712; settings: Streptococcus pyogenes, 712, class symbols, read-out: MIC S PYO 712
Description: as §1

[7] = test system: Staphylococcus aureus 757 (MRSA); experiment: MIC, broth microdilution, SA 757; settings: read-out: MIC SA 757
Description: as §1

[8] = test system: Streptococcus pneumoniae 1195 (ATCC 49619); experiment: MIC, broth microdilution, SPNE 1195; settings: Streptococcus pneumoniae, ATCC49619, class symbols, read-out: MIC S PNE 1195
Description: as §1

[9] = test system: Enterococcus faecium 752 (VRE, Van A); experiment: MIC, broth microdilution, EFcm 752; settings: VRE, Van A, class symbols, read-out: MIC E FCM 752
Description: as §1

[10] = test system: Staphylococcus aureus 2012 (VISA); experiment: MIC, broth microdilution, SA 2012; settings: read-out: MIC SA 2012
Description: as §1

[11] = Table 2, in the presence of 0.002% Polysorbate 80
[12] = Table 2, in the presence of 0.002% Polysorbate 80, class symbols

SMILES | MIC [1, 11] [µg/mL] | MIC [2, 11] [µg/mL] | MIC [3, 11] [µg/mL] | MIC [4, 11] [µg/mL] | MIC [5, 12] [µg/mL] | MIC (Enterococcus faecium 800; [11]) [µg/mL] | MIC [6, 11] [µg/mL] | MIC [7, 12] [µg/mL] | MIC [8, 11] [µg/mL] | MIC [9, 11] [µg/mL] | MIC [10, 12] [µg/mL] | other results
CCCCOc1ccc(S(=O)(=O)NC(=O)C[C@@H]2NC(=O)[C@H](NC(=O)[C@@H](CC(C)C)NC)[C@H](O)c3ccc(c(Cl)c3)Oc3cc4cc(c3O[C@@H]3O[C@H](CN)[C@@H](O)[C@H](O)[C@H]3O)Oc3ccc(cc3Cl)[C@@H](O)[C@@H]3NC(=O)[C@H](NC(=O)[C@@H]4NC2=O)c2ccc(O)c(c2)-c2c(O)cc(O)cc2[C@@H](C(=O)NC2C4CC5CC(C4)CC2C5)NC3=O)cc1 (stereo partly shown) [Compound 99] | – | – | – | – | – | – | – | – | – | – | – | MIC ([1]; Table 1): 0.01 to 0.5 µg/mL (≈ 0.00606 to 0.303 µM); MIC ([2]; Table 1): 0.5 to 1 µg/mL (≈ 0.303 to 0.606 µM); MIC ([3]; Table 1): 0.01 to 0.5 µg/mL (≈ 0.00606 to 0.303 µM); MIC ([4]; Table 1): 0.01 to 0.5 µg/mL (≈ 0.00606 to 0.303 µM); MIC ([5]; Table 1, class symbols): 0.01 to 0.5 µg/mL (≈ 0.00606 to 0.303 µM); MIC (Enterococcus faecium 800; Table 1): 0.01 to 0.5 µg/mL (≈ 0.00606 to 0.303 µM); MIC ([6]; Table 1): 0.01 to 0.5 µg/mL (≈ 0.00606 to 0.303 µM); MIC ([7]; Table 1, class symbols): 0.01 to 0.5 µg/mL (≈ 0.00606 to 0.303 µM); MIC ([8]; Table 1): 0.5 to 1 µg/mL (≈ 0.303 to 0.606 µM); MIC ([9]; Table 1): 0.01 to 0.5 µg/mL (≈ 0.00606 to 0.303 µM); MIC ([10]; Table 1, class symbols): 0.5 to 1 µg/mL (≈ 0.303 to 0.606 µM)
CNCCOc1ccc(C(=O)NC(=O)C[C@@H]2NC(=O)[C@H](NC(=O)[C@@H](CC(C)C)NC)[C@H](O)c3ccc(c(Cl)c3)Oc3cc4cc(c3O[C@@H]3O[C@H](CO)[C@@H](O)[C@H](O)[C@H]3O)Oc3ccc(cc3Cl)[C@@H](O)[C@@H]3NC(=O)[C@H](NC(=O)[C@@H]4NC2=O)c2ccc(O)c(c2)-c2c(O)cc(O)cc2[C@@H](C(=O)NC2C4CC5CC(C4)CC2C5)NC3=O)cc1OCCNC (stereo partly shown) [Compound 160] | 0.5 to 1 | > 16 | 1 to 2 | 0.5 to 1 | 0.01 to 0.5 | 0.01 to 0.5 | 0.01 to 0.5 | 1 to 2 | 0.5 to 1 | 4 to 8 | 1 to 2 | –

Now from value to molecule, other results behind:

MIC [1, 11] [µg/mL] | MIC [2, 11] [µg/mL] | MIC [3, 11] [µg/mL] | MIC [4, 11] [µg/mL] | MIC [5, 12] [µg/mL] | MIC (Enterococcus faecium 800; [11]) [µg/mL] | MIC [6, 11] [µg/mL] | MIC [7, 12] [µg/mL] | MIC [8, 11] [µg/mL] | MIC [9, 11] [µg/mL] | MIC [10, 12] [µg/mL] | SMILES | other results
0.01 to 0.5 | > 16 | 0.01 to 0.5 | 0.01 to 0.5 | 0.01 to 0.5 | 0.01 to 0.5 | 0.01 to 0.5 | 0.01 to 0.5 | 0.01 to 0.5 | > 16 | 0.5 to 1 | CNCCOCc1cc(OCCNC)cc(C(=O)NC(=O)C[C@@H]2NC(=O)[C@H](NC(=O)[C@@H](CC(C)C)NC)[C@H](O)c3ccc(c(Cl)c3)Oc3cc4cc(c3O[C@@H]3O[C@H](CO)[C@@H](O)[C@H](O)[C@H]3O[C@H]3C[C@](C)(N)[C@H](O)[C@H](C)O3)Oc3ccc(cc3Cl)[C@@H](O)[C@@H]3NC(=O)[C@H](NC(=O)[C@@H]4NC2=O)c2ccc(O)c(c2)-c2c(O)cc(O)cc2[C@@H](C(=O)NC2C4CC5CC(C4)CC2C5)NC3=O)c1 (stereo partly shown) [Compound 153] | –
0.01 to 0.5 | > 16 | 0.01 to 0.5 | 0.01 to 0.5 | 0.01 to 0.5 | 0.01 to 0.5 | 0.01 to 0.5 | 0.01 to 0.5 | 0.01 to 0.5 | 4 to 8 | 1 to 2 | CNCCOc1ccc(C(=O)NC(=O)C[C@@H]2NC(=O)[C@H](NC(=O)[C@@H](CC(C)C)NC)[C@H](O)c3ccc(c(Cl)c3)Oc3cc4cc(c3O[C@@H]3O[C@H](CO)[C@@H](O)[C@H](O)[C@H]3O[C@H]3C[C@](C)(N)[C@H](O)[C@H](C)O3)Oc3ccc(cc3Cl)[C@@H](O)[C@@H]3NC(=O)[C@H](NC(=O)[C@@H]4NC2=O)c2ccc(O)c(c2)-c2c(O)cc(O)cc2[C@@H](C(=O)NC2C4CC5CC(C4)CC2C5)NC3=O)cc1OCCNC (stereo partly shown) [Compound 152] | –
0.5 to 1 | > 16 | 0.01 to 0.5 | 0.01 to 0.5 | 0.01 to 0.5 | 0.01 to 0.5 | 0.01 to 0.5 | 0.01 to 0.5 | 0.01 to 0.5 | 2 to 4 | 1 to 2 | CN[C@H](CC(C)C)C(=O)N[C@H]1C(=O)N[C@@H](CC(=O)NC(=O)c2ccc(OCCCN)c(OCCCN)c2)C(=O)N[C@H]2C(=O)N[C@H]3C(=O)N[C@H](C(=O)N[C@H](C(=O)NC4C5CC6CC(C5)CC4C6)c4cc(O)cc(O)c4-c4cc3ccc4O)[C@H](O)c3ccc(c(Cl)c3)Oc3cc2cc(c3O[C@@H]2O[C@H](CO)[C@@H](O)[C@H](O)[C@H]2O[C@H]2C[C@](C)(N)[C@H](O)[C@H](C)O2)Oc2ccc(cc2Cl)[C@H]1O (stereo partly shown) [Compound 166] | –
